Values quoted from earlier work as cited in article PMC8781228 (Bioorganic & medicinal chemistry letters, 2017).

Experiments:
S1PR2 [1] = settings: [33P]S1P competitive binding assay
S1PR2 [2] = settings: read-out: EC50 (allosteric S1PR2 selective agonist)
S1PR3 = settings: [γ-35S]GTPγS binding assay
S1PR4 = settings: [γ-35S]GTPγS binding assay
S1PR1 = settings: [γ-35S]GTPγS binding assay
S1PR2 [3] = settings: [γ-35S]GTPγS binding assay
S1PR5 = settings: [γ-35S]GTPγS binding assay

Cc1cc(C(=O)Cn2cc(C#N)ccc2=O)c(C)n1Cc1ccccc1 [CYM-5520]
competition with S1P (S1PR2 [1]): not competitive with S1P
EC50 (S1PR2 [2]): 480 nM

CCCCCCCCc1ccc(CCC(N)(CO)CO)cc1 [FTY720, fingolimod]
activity at S1PR3 (S1PR3): potent agonist
activity at S1PR4 (S1PR4): potent agonist
activity at S1PR1 (S1PR1): potent agonist
activity at S1PR2 (S1PR2 [3]): inactive
activity at S1PR5 (S1PR5): potent agonist
